Patent US7666842B2, “Elastin peptide analogs and uses thereof” (Connective Tissue Imagineering, LLC, priority 1998, dated 2010)
Ends that are not written are not given here.

Tests used:
[1] = tested on: RFL-6 cells; assay: BrdUTP incorporation assay (mRNA, green fluorescence) in RFL-6 cells; format: cell-based; details: sub-fractions of Fraction #3 (HPLC peaks at 215 nm); Blank (Background) 30
Method: A study was performed to determine whether different peptides had different activities in promoting skin health. Elastin protein was partially digested with thermolysin and the resulting peptides (i.e., SEQ ID 1-SEQ ID 41) were applied to an HPLC column. Five fractions containing clusters of peptides were collected from the column in the 5-50 minute range. The fractions were tested for activity using a bromodeoxyuridine Triphosphate (BrdUTP) incorporation assay in RFL-6 cells. The assay measures production of mRNA involved in protein synthesis.
Fraction #3 was sub-fractionated into 10 fractions corresponding to ten major peaks identified on the HPLC (at 215 nm). Table VI below illustrates the green fluorescence intensity as a measure of increased mRNA in RFL-6 cells in response to sub-fractionated portions of Fraction #3.

[2] = tested on: skins of neonatal male Sprague-Dawley rats; assay: Collagen content of neonatal rat skin (hydroxyproline); format: in vivo; details: 0.5% in carrier twice daily, 30 days; five animals per group
Method: (§1) DHEA and the derivative compounds of DHEA (the 7 hydroxy derivative and 7 hydroxy-isoandrosterone) modified the elastin and collagen contents of neonatal rat skin when applied twice daily over a 30 day period at a concentration of 0.5% in a suitable carrier.
(§2) Collagen and elastin contents were measured on dry, defatted, hair-free skin samples. Collagen contents were assessed through hydroxyproline evaluations in hydrolyzed, 0.1N hot sodium hydroxide extracts. Elastin contents were measured by HPLC evaluation of the contents of thermolysin-produced peptides in digests of the hot sodium hydroxide residue. Controls were both shaven and unshaven, the shaven receiving only the carrier twice daily.
(§3) Elastin contents were increased by all the compounds (28% for DHEA, 30% for the 7 hydroxy derivative and the 7 hydroxy-isoandrosterone). In these studies, statistical analysis of variance was significant at an alpha level of 0.01. Similar to the histological observations, these chemistries were reversible. Collagen and elastin contents returned to near normal levels after cessation of treatment for 30 days.

[3] = tested on: skin of treated rats; assay: Fluorescent micrographs of skin cross-sections stained with anti-fibronectin antibodies (Example 3); format: in vivo, rat; details: FIG. 2C DHEA topical, FIG. 2D peptide composition
From the text: FIGS. 2A-D are fluorescent micrographs of fixed skin cross-sections taken from rats treated as described in Example 3, and stained with fluorescein-conjugated anti-fibronectin antibodies. FIG. 2A is a representative sample from the unshaven control tissue; FIG. 2B is a representative sample from the shaven control sample; FIG. 2C is a representative sample of tissue which received DHEA topical treatment; and FIG. 2D is a representative sample of tissue which received treatment of a composition containing peptides, as described in Example 2. In each of the panels, the dermal layer of the skin is indicated by a bracket.
The capillary venules are shown in this figure as brightly stained oval bodies that lie beneath the dermal layer. The increase in the concentration of endothelial cells in the subdermal region indicates an increase in capillary density and therefore illustrates the potential for the peptides and formulations of the present invention to be used for the formation of blood vessels or capillary venules (neovascularization or angiogenesis).

[4] = tested on: skins of neonatal male Sprague-Dawley rats; assay: Elastin content of neonatal rat skin (HPLC of thermolysin-produced peptides); format: in vivo; details: 0.5% in carrier twice daily, 30 days; five animals per group
Method: as §1, §2, §3

[5] = In-vitro oxygen radical assay (luminol chemiluminescence, hydrogen peroxide); format: biochemical; details: diluted luminol pre-incubated with compound; 100 μg/ml for DHEA
Method: The ability of a compound to scavenge free radicals may implicate it as an anti-oxidizing agent. To test whether DHEA or it derivatives had the ability to capture free radicals, an in-vitro oxygen radical assay was used. The assay was run in quadruplicate to perfect the concentrations of controls as well as test the diluents (phosphate buffered saline (PBS) and DMSO) in which the DHEA and its derivatives were dissolved. The positive controls used were homocysteine and ascorbic acid (Vitamin C).

[6] = tested on: skin of Sprague-Dawley male rats; assay: Elastin content of rat skin after topical treatment (Example 2); format: in vivo; details: topical DHEA, 5% concentration, similar time period; S CONTR 1.408, US CONTR 2.291
Method: Topical treatment of Sprague-Dawley male rats with a composition including peptides (i.e., SEQ IDs 1-41) at a concentration of about 1.3% (wt/wt) of the formulation over a one month period was performed. The rats were treated topically with a 1.3% concentration (wt/wt) of the preparation of the hydrophilic elastin peptide for a period of 30 days. […] Three animals each were used to generate the data for S CONTR, US CONT, and DHEA and eleven animals were used for HEP. Three skin samples from the treated areas of each animal were taken for study, and the three results from each animal were averaged. […] The elastin content of the skin was determined by a precise assay for rat elastin developed by Sandberg, et al. (Connective Tissue Research 25:139-48, 1990) the assay portion of which is hereby incorporated herein by reference thereto. […]
An alpha level less than 0.001 for the data as determined by analysis of variance is significant because there is less than one chance in a thousand that the findings occur by chance.

[7] = tested on: RFL-6 cells; assay: Tritiated thymidine incorporation in RFL-6 cells; details: synthetic peptides, 24 hour incubation with RFL-6 cells
Method: Synthetic peptides were tested for their ability to stimulate incorporation of tritiated thymidine with a 24 hour incubation with RFL-6 cells.

[8] = tested on: rat skin; assay: H&E histology of treated rat skin (Example 6); format: in vivo; details: for Outer (keratin) layer and vascularity of the inner layer: treated skin sections; for Thickness of the dermal layer of skin: vs untreated controls (both shaven and unshaven)
Method: Rat skin was treated with 7-hydroxy DHEA and 7-hydroxy isoandrosterone. Skin cross sections were stained with hematoxylin and eosin (H&E) and examined histologically. […] The DHEA and derivatives induction of dermal thickening was reversible. A subset of experimental animals within each treatment group were left untreated for 30 days. Upon examination, treated skin sections were indistinguishable from the untreated. Concomitant toxicological studies found no significant toxicity when the compounds were used at 0.5% concentration in a suitable carrier applied twice daily (12 hour intervals) for 30 days.

[9] = tested on: human keratinocytes; assay: Anti-radical effect on UVA-irradiated human keratinocytes (lipoid peroxides, chemiluminescence); format: cell-based; details: 10^−6 M
From the text: Keratinocytes from a healthy donor were cultivated to the subconfluent stage in a specific medium (KGM) for the proliferation of keratinocytes. The suspensions obtained were split up, in triplicate, into four series, of which three were irradiated for thirty minutes with a lamp emitting UVA so as to speed up the production of free radicals. Among the three irradiated series, one contained Vitamins C and E (0.7%) and was used as a protection reference; one contained 7α-hydroxy-DHEA at 10^−6 M and the last served as a control.
The free radicals produced generated lipoid peroxides which are measured by chemiluminescence (Belghmi et al. J Biolum. Chemilum. 2: 113-119, 1982). The effectiveness of the 7α-hydroxy-DHEA was calculated on the basis of non-irradiated controls and the protection reference.

[10] = tested on: human keratinocytes; assay: Viability of human keratinocytes (MTT); format: cell-based; details: 10^−4 M to 10^−8 M
Method: Human keratinocytes were obtained from surgical items and were cultivated in a monolayer until preconfluence. The 7α-hydroxy-DHEA was administered to these cultures at various concentrations in ethanolic solution (10%), each concentration being tested eight times. Controls were carried out with ethanol alone (10%). After twenty-four hours, the viability of the keratinocytes was measured by testing with MTT (3-(4,5-dimethylthiazol-2-yl)-2,5 diphenyl tetrazolium bromide) where the mitochondrial dehydrogenase succinate converts the MTT into blue crystals of formazan soluble in DMSO (Mosmann, J. Immunol. Methods 65: 55-63, 1983). The cellular viability is calculated according to the formula: % viability=DO540 product×100/DO540 control.
A value greater than 100 indicates a product that encourages cellular viability.

[11] = tested on: human fibroblasts; assay: Proliferation of human fibroblasts in culture (cell count); format: cell-based; details: 72 hours of contact, control 190,667 ± 6,766
Method: Cultures of human fibroblasts (from a person) were seeded on twenty-four site plates at the rate of 50,000 cells per site in a standard culture medium (DMEM, gentamycine, amphotericine B, penicillin, L-glutamine, 10% SVF). The tests were carried out on four series of three sites. After twenty-four hours, the fibroblasts adhered to the support and three series were treated with 7α-hydroxy-DHEA at concentrations of 10^−6 M, 5×10^−6 M and 10^−7 M. The fourth series only contained the vector (ethanol). The media were renewed daily, and at ninety-six hours (seventy-two hours of test contact with the 7α-hydroxy-DHEA), the fibroblasts were counted on a Malassez cell in the presence of blue trypan.

Valine-Glycine-Valine-Hydroxy-proline-Glycine [SEQ ID 23]
% Change of Green Fluorescence Intensity [1]: 57%

C[C@]12CC[C@H](O)CC1=CC[C@@H]1[C@@H]2CC[C@]2(C)C(=O)CC[C@@H]12 [DHEA, 3β-hydroxy-5-androstene-17-one, reference compound]
Collagen decrease [2]: 16% | Dermal layer of control skin (FIGS. 2A and B) compared to treated skin (FIGS. 2C and D) [3]: thin compared to the thickness of the dermal layers in FIGS. 2C and D | Elastin contents increased by [4]: 28% | Reduction of luminol light emission [5]: 20% | Elastin content of the skin (mean) [6]: 1.753 μg Elastin per mg Skin Fat Fre

Alanine-Alanine-Alanine-Glutamine-Alanine (AAAQA; listed as Homo sapiens) [SEQ ID 22]
% Change of Green Fluorescence Intensity [1]: 20%

Acetyl-VVPQ (Ac-VVPQ; listed as Homo sapiens) [SEQ ID 43]
Tritiated thymidine incorporation, % CPM above the control [7]: ~1 % CPM above the control

Valine-Valine-Proline-Glutamine [SEQ ID 17]
Tritiated thymidine incorporation, % CPM above the control [7]: ~28 % CPM above the control | % Change of Green Fluorescence Intensity [1]: 85%

GAVVPQ--NH2 (GAVVPQ-NH2; listed as Homo sapiens) [SEQ ID 48]
Tritiated thymidine incorporation, % CPM above the control [7]: ~25 % CPM above the control

Valine-Valine-Proline-Glutamine-Amide [SEQ ID 42]
Tritiated thymidine incorporation, % CPM above the control [7]: ~1 % CPM above the control

Valine-Glycine-Proline-Alanine [SEQ ID 14]
% Change of Green Fluorescence Intensity [1]: 39%

C[C@]12CC[C@H](O)CC1=C[C@H](O)[C@@H]1[C@@H]2CC[C@]2(C)C(=O)CC[C@@H]12 [7-hydroxy DHEA]
Collagen increased by [2]: 24% | Outer (keratin) layer and vascularity of the inner layer [8]: no change in the outer (keratin) layer nor increase of vascularity of the inner layer | Thickness of the dermal layer of skin [8]: thickened to nearly twice that of the untreated controls | Elastin contents increased by [4]: 30% | Reduction of luminol light emission [5]: did not cause any reduction

C[C@]12CC[C@H](O)CC1=C[C@@H](O)[C@@H]1[C@@H]2CC[C@]2(C)C(=O)CC[C@@H]12 [7α-hydroxy-DHEA, 3β,7α-dihydroxy-5-androstene-17-one]
Chemiluminescence ([9]; UVA irradiated 30 minutes, non irradiated 2,529 ± 153, irradiated controls 427,750 ± 137,322): 44,164 ± 13,303 | Effectiveness ([9]; UVA irradiated, calculated on non-irradiated controls and protection reference): 90% | Cytotoxicity on human keratinocytes [10]: no cytotoxicity was observed | Number of Fibroblasts ([11]; 5 × 10^−6 M): 258,667 ± 3,351 | Number of Fibroblasts ([11]; 10^−6 M): 268,000 ± 27,154 | Number of Fibroblasts ([11]; 10^−7 M): 230,667 ± 8,511

Valine-Tyrosine-Proline-Glycine-Glycine [SEQ ID 24]
% Change of Green Fluorescence Intensity [1]: 38%

Leucine-Glycine-Alanine-Glycine-Glycine-Alanine-Glycine [SEQ ID 19]
Tritiated thymidine incorporation, % CPM above the control [7]: ~18 % CPM above the control

C[C@]12CC[C@H](O)C[C@@H]1CC(O)[C@@H]1[C@@H]2CC[C@]2(C)C(=O)CC[C@@H]12 (some centres unmarked) [7-hydroxy isoandrosterone]
Collagen increased by [2]: 24% | Outer (keratin) layer and vascularity of the inner layer [8]: no change in the outer (keratin) layer nor increase of vascularity of the inner layer | Thickness of the dermal layer of skin [8]: thickened to nearly twice that of the untreated controls | Elastin contents increased by [4]: 30% | Reduction of luminol light emission [5]: 15%

Acetyl-GAVVPQ--NH2 (Ac-GAVVPQ-NH2; listed as Homo sapiens) [SEQ ID 44]
Tritiated thymidine incorporation, % CPM above the control [7]: ~5 % CPM above the control
